Assay results: patent US20200277378A1, “COMBINATION THERAPIES” (Novartis AG, priority 2017, published 2020)
Counter-ions that a name gives are not always drawn.

Tests used:
[1] = system: PBMCs from whole blood activated by SEB; type: cell-based, human
[2] = Clinical study of PDR001 in combination with a CXCR2 inhibitor (DLT evaluation); type: in vivo, human; settings: PDR001 400 mg Q4W + CXCR2 inhibitor 75 mg BID 2 weeks on/2 week off; seven patients dosed, two completed 56-day DLT period
Experimental: The primary objective of this study is to combine the PDR001 checkpoint inhibitor with the CXCR2 inhibitor, 6-chloro-3-((3,4-dioxo-2-(pentan-3-ylamino)cyclobut-1-en-1-yl)amino)-2-hydroxy-N-methoxy-N-methylbenzenesulfonamide choline salt, to identify the doses and schedule for combination therapy and to preliminarily assess the safety, tolerability, pharmacological and clinical activity of these combinations.
Patients are dosed on a flat scale and not by body weight or body surface area. Dosing of the CXCR2 inhibitor occurs immediately after completion of the PDR001 infusion during clinic visits. Patients are treated with 400 mg PDR001 every four weeks (i.e., Q4W). The CXCR2 inhibitor is administered orally twice daily, approximately 12 hours apart, with approximately 240 mL of water on an empty stomach at least 1 hour before or 2 hours after a meal, at about the same time every day. Patients are instructed not to chew the medication but to swallow it whole. The CXCR2 inhibitor is administered at a starting dose of 75 mg BID, two weeks on/two weeks off in each 28-day cycle or one week on/two weeks off in each 21-day cycle. If tolerated, the dose may be escalated to 150 mg BID two weeks on/two weeks off or one week on/two weeks off. […] Multiple dose levels below the MTD may be evaluated simultaneously in order to obtain PK and PD data across a range of doses and to establish the MTD/RDE. […]

MC38 tumors = assay: PD-L1 expression on tumor-infiltrating dendritic cells and macrophages in MC38 colon carcinoma mouse model; type: in vivo, C57BL/6 mice; settings: combination BLZ945 200 mg/kg p.o. weekly + 5D12 10 mg/kg i.p. biweekly, day 9
Experimental: C57BL/6 mice (Charles River Laboratories) were implanted with 1×10^6 MC38 cells subcutaneously. When tumors were 70-100 mm3 in size, mice were randomized into groups of 8 animals and treated with an anti-TIM-3 antibody (5D12), a CSF-1R binding agent (BLZ945), both 5D12 antibody and BLZ945, or with vehicle control. Mice were dosed orally (p.o.) or intraperitoneally (i.p.). The groups of mice were dosed as follows:
Group 1) Vehicle p.o+antibody Isotype (mIgG1) i.p; Group 2) BLZ945 200 mg/kg p.o+antibody isotype (mIgG1) i.p; Group 3) Vehicle p.o+5D12 (mouse anti-TIM-3) 10 mg/kg i.p; Group 4) BLZ945 200 mg/kg p.o+5D12 (mouse anti-TIM-3) 10 mg/kg i.p. BLZ945 was dosed weekly and 5D12 was dosed biweekly.
At Day 9 post-treatment initiation, mice were sacrificed. Tumors were harvested and processed into single cell suspensions for analysis by flow cytometry. The single cell suspension was generated using a combination of dispase, collagenase and DNase 1. The tumor infiltrating immune cells were analyzed by flow cytometry. Samples were acquired on a BD Fortessa and data was analyzed using Flowjo. Populations were defined as follows: dendritic cells (CD45+CD11b+Ly6C-MHC-II+Ly6G-F480−) and macrophages (CD45+CD11b+Ly6C-MHC-II+Ly6G-F480+). Levels of PD-L1 expression were analyzed as the mean fluorescence intensity of signal in the PD-L1 channel. […]

neutrophils = assay: rhGROα-induced neutrophil migration; type: cell-based
human CXCR2 receptor = human CXCR2 receptor (Homo sapiens, UniProt P25025); settings: membranes from CHO cells expressing human CXCR2 receptor
[3] = system: neutrophils in whole human blood; assay: rhGROα-induced neutrophil shape change in whole human blood; type: cell-based

human CXCR2 receptor, sequence (P25025 whole entry): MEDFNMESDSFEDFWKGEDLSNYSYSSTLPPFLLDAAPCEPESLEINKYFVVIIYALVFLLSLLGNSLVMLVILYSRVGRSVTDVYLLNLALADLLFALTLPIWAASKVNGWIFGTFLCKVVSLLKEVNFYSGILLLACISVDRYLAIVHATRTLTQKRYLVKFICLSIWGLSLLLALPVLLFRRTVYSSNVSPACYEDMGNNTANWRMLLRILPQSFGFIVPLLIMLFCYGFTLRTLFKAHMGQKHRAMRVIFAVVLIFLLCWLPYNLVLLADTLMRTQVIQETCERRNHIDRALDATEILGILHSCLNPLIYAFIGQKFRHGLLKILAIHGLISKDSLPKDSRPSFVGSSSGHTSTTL

Molecule: PDR001: anti-PD-1 antibody molecule (PD-1 inhibitor, Novartis), also known as Spartalizumab
- EC50 in SEB activation assay [1]: 0.5 µg/mL
- EC50 ([1]; read-out: EC50 in SEB activation assay): 3.68 nM
- dose limiting toxicity (DLT) [2]: no patient has developed a DLT

Molecule: CNC(=O)c1cc(Oc2ccc3nc(N[C@@H]4CCCC[C@H]4O)sc3c2)ccn1 [BLZ945, 4-((2-(((1R,2R)-2-hydroxycyclohexyl)amino)benzo[d]thiazol-6-yl)oxy)-N-methylpicolinamide]
- PD-L1 expression (mean fluorescence intensity) in F480+ and F480- tumor-infiltrating cells (MC38 tumors): enhancement

Molecule: CCC(CC)Nc1c(Nc2ccc(Cl)c(S(=O)(=O)N(C)OC)c2O)c(=O)c1=O [6-chloro-3-((3,4-dioxo-2-(pentan-3-ylamino)cyclobut-1-en-1-yl)amino)-2-hydroxy-N-methoxy-N-methylbenzenesulfonamide choline salt]
- rhGROα-induced neutrophil migration (neutrophils): dose-dependent inhibition
- dose limiting toxicity (DLT) [2]: no patient has developed a DLT
- GROα and IL-8-stimulated [35S]GTPγS binding (human CXCR2 receptor): inhibits
- neutrophil shape change induced by rhGROα [3]: dose-dependent inhibition

B1: LAG525: LAG-3 inhibitor (Novartis), anti-LAG-3 antibody molecule (antibody, chains of the INN, looked up, V domains shown)
VH: QVQLVQSGAEVKKPGASVKVSCKASGFTLTNYGMNWVRQARGQRLEWIGWINTDTGEPTYADDFKGRFVFSLDTSVSTAYLQISSLKAEDTAVYYCARNPPYYYGTNNAEAMDYWGQGTTVTVSS
VL: DIQMTQSPSSLSASVGDRVTITCSSSQDISNYLNWYLQKPGQSPQLLIYYTSTLHLGVPSRFSGSGSGTEFTLTISSLQPDDFATYYCQQYYNLPWTFGQGTKVEIK
- IL-2 production in the SEB assay on titration ([1]; increasing doses of LAG525 with fixed 0.5 ug/ml each of PDR001 and GWN323): dose-responsive production of IL-2
